# Experimental data published in PubChem BioAssay AID248 (DTP/NCI, 2004).
# Toxic doses and inconclusive results are not listed.
# System: L1210 leukemia ip in BDF1 mice, survival T/C
# Experiment: NCI In Vivo Anticancer Drug Screen. Data for tumor model L1210 Leukemia (intraperitoneal) in B6D2F1 (BDF1) mice
# Conditions: endpoint: mean survival time, higher = longer survival
# Method in brief: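 Each compound was tested against a transplantable tumor grown in mice. The endpoint was survival, with treated animals benchmarked against vehicle controls as a simple ratio.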
# [1] = dose: 100.0 mg/kg/injection, schedule: Q04DX003 (ip), vehicle: saline with Tween-80
# [2] = dose: 200.0 mg/kg/injection, schedule: Q04DX003 (ip), vehicle: saline with Tween-80
# [3] = dose: 400.0 mg/kg/injection, schedule: Q04DX003 (ip), vehicle: saline with Tween-80
# [4] = dose: 100.0 mg/kg/injection, schedule: Q01DX009 (ip), vehicle: Klucel (hydroxypropylcellulose) (HPC)
# [5] = dose: 100.0 mg/kg/injection, schedule: Q04DX003 (ip), vehicle: Klucel (hydroxypropylcellulose) (HPC)
# [6] = dose: 200.0 mg/kg/injection, schedule: Q01DX009 (ip), vehicle: Klucel (hydroxypropylcellulose) (HPC)
# [7] = dose: 200.0 mg/kg/injection, schedule: Q04DX003 (ip), vehicle: Klucel (hydroxypropylcellulose) (HPC)
# [8] = dose: 400.0 mg/kg/injection, schedule: Q04DX003 (ip), vehicle: Klucel (hydroxypropylcellulose) (HPC)
# [9] = dose: 100.0 mg/kg/injection, schedule: Q01DX001 (ip), vehicle: saline
# [10] = dose: 200.0 mg/kg/injection, schedule: Q01DX001 (ip), vehicle: saline
# [11] = dose: 400.0 mg/kg/injection, schedule: Q01DX001 (ip), vehicle: saline
# [12] = dose: 400.0 mg/kg/injection, schedule: Q01DX009 (ip), vehicle: Klucel (hydroxypropylcellulose) (HPC)
# [13] = dose: 50.0 mg/kg/injection, schedule: Q01DX009 (ip), vehicle: saline with Tween-80
# [14] = dose: 100.0 mg/kg/injection, schedule: Q01DX009 (ip), vehicle: saline with Tween-80
# [15] = dose: 200.0 mg/kg/injection, schedule: Q01DX009 (ip), vehicle: saline with Tween-80
# [16] = dose: 400.0 mg/kg/injection, schedule: Q01DX009 (ip), vehicle: saline with Tween-80
# [17] = dose: 100.0 mg/kg/injection, schedule: Q01DX009 (ip), vehicle: saline sonified
# [18] = dose: 200.0 mg/kg/injection, schedule: Q01DX009 (ip), vehicle: saline sonified
# [19] = dose: 400.0 mg/kg/injection, schedule: Q01DX009 (ip), vehicle: saline sonified
compound,measurement,setting,value
N#CCCSCCC#N,T/C,"dose: 7.5 mg/kg/injection, schedule: Q01DX009 (ip), vehicle: saline",101 % of control
same,T/C,[1],105 % of control
same,T/C,"dose: 100.0 mg/kg/injection, schedule: Q04DX003 (ip), vehicle: saline",115 % of control
same,T/C,"dose: 150.0 mg/kg/injection, schedule: Q01DX009 (ip), vehicle: saline",93 % of control
same,T/C,[2],100 % of control
same,T/C,"dose: 200.0 mg/kg/injection, schedule: Q04DX003 (ip), vehicle: saline",101 % of control
same,T/C,"dose: 300.0 mg/kg/injection, schedule: Q01DX009 (ip), vehicle: saline",98 % of control
same,T/C,[3],108 % of control
same,T/C,"dose: 400.0 mg/kg/injection, schedule: Q04DX003 (ip), vehicle: saline",100 % of control
CC1CCCC[N-]1.CC1CCCC[N-]1.[Cl][Pt+2][Cl] (centres undefined),T/C,[4],97 % of control
same,T/C,[5],98 % of control
same,T/C,[6],102 % of control
same,T/C,[7],96 % of control
same,T/C,[8],102 % of control
ClCCN(CCCl)CCNc1ccnc2cc(Cl)ccc12,T/C,"dose: 5.0 mg/kg/injection, schedule: Q01DX001 (ip), vehicle: saline",100 % of control
same,T/C,"dose: 10.0 mg/kg/injection, schedule: Q01DX001 (ip), vehicle: saline",108 % of control
same,T/C,"dose: 20.0 mg/kg/injection, schedule: Q01DX001 (ip), vehicle: saline",117 % of control
same,T/C,"dose: 40.0 mg/kg/injection, schedule: Q01DX001 (ip), vehicle: saline",116 % of control
O=C(C(Cl)(Cl)Cl)C(Cl)(Cl)Cl,T/C,"dose: 75.0 mg/kg/injection, schedule: Q01DX009 (ip), vehicle: saline with Tween-80",90 % of control
same,T/C,"dose: 100.0 mg/kg/injection, schedule: Q04DX002 (ip), vehicle: Klucel (hydroxypropylcellulose) (HPC)",113 % of control
same,T/C,"dose: 150.0 mg/kg/injection, schedule: Q01DX009 (ip), vehicle: saline with Tween-80",93 % of control
same,T/C,"dose: 200.0 mg/kg/injection, schedule: Q04DX002 (ip), vehicle: Klucel (hydroxypropylcellulose) (HPC)",113 % of control
same,T/C,"dose: 300.0 mg/kg/injection, schedule: Q01DX009 (ip), vehicle: saline with Tween-80",86 % of control
same,T/C,"dose: 400.0 mg/kg/injection, schedule: Q04DX002 (ip), vehicle: Klucel (hydroxypropylcellulose) (HPC)",87 % of control
O=C(Nc1ccn(C2OC(CO)C(O)C2O)c(=O)n1)c1ccccc1 (centres undefined),T/C,[9],97 % of control
same,T/C,[10],97 % of control
same,T/C,[11],86 % of control
CC(=O)CN1C(=O)c2ccccc2C1=O,T/C,[4],102 % of control
same,T/C,[5],111 % of control
same,T/C,[6],108 % of control
same,T/C,[7],104 % of control
same,T/C,[12],105 % of control
same,T/C,[8],98 % of control
CCCCCCCCCC(=O)N(C)OC,T/C,[1],87 % of control
same,T/C,[2],88 % of control
same,T/C,[3],92 % of control
Cc1cc(OCC(=O)O)c(Cl)cc1Cl,T/C,[13],92 % of control
same,T/C,[14],99 % of control
CNc1ncnc2nc(Cl)[nH]c12,T/C,[9],108 % of control
Nc1ccc(CCNS(=O)(=O)c2ccc(S(=O)(=O)F)cc2)cc1,T/C,[9],103 % of control
same,T/C,[10],97 % of control
same,T/C,[11],107 % of control
CC/C(=N/N=C(N)N)c1ccc(NC(=O)Nc2ccc(/C(CC)=N/N=C(N)N)cc2)cc1,T/C,"dose: 2.5 mg/kg/injection, schedule: Q01DX009 (ip), vehicle: saline",103 % of control
same,T/C,"dose: 5.0 mg/kg/injection, schedule: Q01DX009 (ip), vehicle: saline",121 % of control
same,T/C,"dose: 10.0 mg/kg/injection, schedule: Q01DX009 (ip), vehicle: saline",107 % of control
COP(=O)(O)C(C)=O (tested in a mixture with another compound),T/C,"dose: 100.0 mg/kg/injection, schedule: Q04DX002 (ip), vehicle: other",96 % of control
same,T/C,"dose: 200.0 mg/kg/injection, schedule: Q04DX002 (ip), vehicle: other",114 % of control
same,T/C,"dose: 400.0 mg/kg/injection, schedule: Q04DX002 (ip), vehicle: other",101 % of control
CCOC(=O)C(=CNc1cccc2ccncc12)C(=O)OCC,T/C,[1],104 % of control
same,T/C,[2],95 % of control
same,T/C,[3],117 % of control
CN(N=O)C(=O)NCCCCCNC(=O)N(C)N=O,T/C,"dose: 6.25 mg/kg/injection, schedule: Q01DX Z (ip), vehicle: carboxymethylcellulose (CMC)",102 % of control
same,T/C,"dose: 12.5 mg/kg/injection, schedule: Q01DX Z (ip), vehicle: carboxymethylcellulose (CMC)",100 % of control
same,T/C,"dose: 25.0 mg/kg/injection, schedule: Q01DX Z (ip), vehicle: carboxymethylcellulose (CMC)",106 % of control
same,T/C,"dose: 50.0 mg/kg/injection, schedule: Q01DX Z (ip), vehicle: carboxymethylcellulose (CMC)",108 % of control
same,T/C,"dose: 150.0 mg/kg/injection, schedule: Q01DX Z (ip), vehicle: carboxymethylcellulose (CMC)",191 % of control
same,T/C,"dose: 175.0 mg/kg/injection, schedule: Q01DX Z (ip), vehicle: carboxymethylcellulose (CMC)",166 % of control
same,T/C,"dose: 200.0 mg/kg/injection, schedule: Q01DX Z (ip), vehicle: carboxymethylcellulose (CMC)",158 % of control
same,T/C,"dose: 210.0 mg/kg/injection, schedule: Q01DX001 (ip), vehicle: carboxymethylcellulose (CMC)",117 % of control
CC(=O)Nc1c(NN=C(C)C)[nH]c(=O)[nH]c1=O,T/C,"dose: 50.0 mg/kg/injection, schedule: Q01DX001 (ip), vehicle: saline",98 % of control
same,T/C,[9],96 % of control
same,T/C,[10],102 % of control
same,T/C,[11],98 % of control
O=C1NC(=O)C(c2ccc(C(F)(F)F)cc2)(c2ccc(C(F)(F)F)cc2)N1,T/C,[14],98 % of control
same,T/C,[1],92 % of control
same,T/C,[15],90 % of control
same,T/C,[2],96 % of control
same,T/C,[16],86 % of control
same,T/C,[3],89 % of control
CC(=O)Nc1ccn(C2OC(CO)C(O)C2O)c(=O)n1 (centres undefined),T/C,"dose: 200.0 mg/kg/injection, schedule: Q01DX009 (ip), vehicle: saline",166 % of control
same,T/C,"dose: 400.0 mg/kg/injection, schedule: Q01DX009 (ip), vehicle: saline",163 % of control
CCOC(=O)NCNC(=O)OCC,T/C,[17],104 % of control
same,T/C,"dose: 100.0 mg/kg/injection, schedule: Q04DX003 (ip), vehicle: saline sonified",100 % of control
same,T/C,[18],95 % of control
same,T/C,"dose: 200.0 mg/kg/injection, schedule: Q04DX003 (ip), vehicle: saline sonified",97 % of control
same,T/C,[19],91 % of control
same,T/C,"dose: 400.0 mg/kg/injection, schedule: Q04DX003 (ip), vehicle: saline sonified",94 % of control
C(=Nc1ccccc1)c1ccccc1B1Oc2ccccc2O1,T/C,[4],100 % of control
same,T/C,[6],96 % of control
same,T/C,[12],119 % of control
COc1ccc(-n2c(=O)c(N=Nc3ccc(Cl)cc3)c(O)n(-c3ccccc3OC)c2=S)cc1,T/C,"dose: 50.0 mg/kg/injection, schedule: Q01DX001 (ip), vehicle: Klucel (hydroxypropylcellulose) (HPC)",110 % of control
same,T/C,"dose: 100.0 mg/kg/injection, schedule: Q01DX001 (ip), vehicle: Klucel (hydroxypropylcellulose) (HPC)",102 % of control
same,T/C,"dose: 200.0 mg/kg/injection, schedule: Q01DX001 (ip), vehicle: Klucel (hydroxypropylcellulose) (HPC)",100 % of control
O=[N+]([O-])c1ccc(/C=N\Nc2ccc([N+](=O)[O-])cn2)cc1,T/C,[13],91 % of control
same,T/C,[17],92 % of control
same,T/C,[14],95 % of control
same,T/C,[5],94 % of control
same,T/C,[18],87 % of control
same,T/C,[15],87 % of control
same,T/C,[7],93 % of control
same,T/C,[19],95 % of control
same,T/C,[8],101 % of control
CN1c2ccc(Cl)cc2C2(C(=O)NN)C(C(=O)NN)N(C3CCCCC3)C(=O)C12N (centres undefined),T/C,[14],97 % of control
same,T/C,[15],107 % of control
Cc1cc(N)n(C(N)=O)n1,T/C,[14],102 % of control
same,T/C,[1],106 % of control
same,T/C,[15],110 % of control
same,T/C,[2],107 % of control
same,T/C,[16],108 % of control
same,T/C,[3],109 % of control
COc1cc([N+](=O)[O-])c2nc(C(Br)(Br)Br)ccc2c1[N+](=O)[O-],T/C,"dose: 50.0 mg/kg/injection, schedule: Q01DX001 (ip), vehicle: carboxymethylcellulose (CMC)",105 % of control
same,T/C,"dose: 100.0 mg/kg/injection, schedule: Q01DX001 (ip), vehicle: carboxymethylcellulose (CMC)",111 % of control
same,T/C,"dose: 200.0 mg/kg/injection, schedule: Q01DX001 (ip), vehicle: carboxymethylcellulose (CMC)",96 % of control
same,T/C,"dose: 400.0 mg/kg/injection, schedule: Q01DX001 (ip), vehicle: carboxymethylcellulose (CMC)",103 % of control
